From the supplement of paper PMC4862054

Tests used:
BT-474 [1] = conditions: 72 h
Method in brief: (§1)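 Breast cancer cell lines in 20 µl suspension were added to 384-well plates already holding compound at 5 concentrations, spaced in 10-fold steps across a compound-specific 10,000-fold range, and incubated for 72 h. CellTox Green fluorescence (485/520 nm) was read first to measure cell death, followed by CellTiter-Glo luminescence for viability after 10 min at room temperature. Each plate was normalised to 0.1 % DMSO and a positive kill control. EC50 values came from dose-response curve fits and were censored at the top concentration.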

BT-549 [2] = conditions: 72 h
Method in brief: as §1

CAL-120 [3] = conditions: 72 h
Method in brief: as §1

CAL-51 [4] = conditions: 72 h
Method in brief: as §1

CAL-85-1 [5] = conditions: 72 h
Method in brief: as §1

HCC1937 = conditions: 72 h
Method in brief: as §1

Hs578T [6] = conditions: 72 h
Method in brief: as §1

MCF-10A = conditions: 72 h
Method in brief: as §1

MDA-MB-436 = conditions: 72 h
Method in brief: as §1

MDA-MB-453 [7] = conditions: 72 h
Method in brief: as §1

MDA-MB-468 [8] = conditions: 72 h
Method in brief: as §1

SK-BR-3 [9] = conditions: 72 h
Method in brief: as §1

MDA-MB-453 [10] = conditions: 72 h; remark: listed apart in the source
Method in brief: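 Rows with a drug sensitivity score of zero were dropped, and EC50 was taken from the fitted percent-inhibition dose-response curve, censored at the highest concentration. Data were normalised on each plate to vehicle and a positive kill control and checked by Z'-factor. The assay seeded breast cancer cell lines in 20 µl onto 384-well plates pre-loaded with compound in 5 µl medium for 72 h, then added 2.5 µl CellTiter-Blue for 2 h at 37 °C and read fluorescence at 560/590 nm.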

CAL-148 = experiment: normalised viability (% of control), CellTiter-Blue; higher = more viable cells (about 100 = DMSO control); conditions: 3000 nM; incubation time: 72 h
Description: (§2)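 DSRT, CellTiter-Blue viability, 72 h incubation. Signal is normalised to DMSO and benzethonium chloride controls. Value is the normalised response at dose 8.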

CAL-51 [11] = experiment: as above; conditions: 3000 nM; incubation time: 72 h
Description: as §2

CAL-85-1 [12] = experiment: as above; conditions: 3000 nM; incubation time: 72 h
Description: as §2

DU-4475 [13] = experiment: as above; conditions: 3000 nM; incubation time: 72 h
Description: as §2

HDQ-P1 [14] = experiment: as above; conditions: 3000 nM; incubation time: 72 h
Description: as §2

MDA-MB-453 [15] = experiment: as above; conditions: 3000 nM; incubation time: 72 h
Description: as §2

BT-474 [16] = experiment: normalised viability (% of control), CellTiter-Blue; higher = more viable cells (about 100 = DMSO control); conditions: 100 nM; incubation time: 72 h
Method in brief: (§3)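 Each value is normalised viability at a single listed concentration of the series. Breast cancer cell lines in 384-well plates were incubated 72 h with compound and read by CellTiter-Blue fluorescence at 560/590 nm, with vehicle set to 100 and a positive kill control to 0 on every plate.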

BT-549 [17] = experiment: as above; conditions: 100 nM; incubation time: 72 h
Method in brief: as §3

CAL-120 [18] = experiment: as above; conditions: 100 nM; incubation time: 72 h
Method in brief: as §3

CAL-85-1 [19] = experiment: as above; conditions: 10 nM; incubation time: 72 h
Method in brief: as §3

DU-4475 [20] = experiment: as above; conditions: 10 nM; incubation time: 72 h
Method in brief: as §3

HCC1143 = experiment: as above; conditions: 100 nM; incubation time: 72 h
Method in brief: as §3

Hs578T [21] = experiment: as above; conditions: 100 nM; incubation time: 72 h
Method in brief: as §3

MDA-MB-231 = experiment: as above; conditions: 100 nM; incubation time: 72 h
Method in brief: as §3

MDA-MB-468 [22] = experiment: as above; conditions: 100 nM; incubation time: 72 h
Method in brief: as §3

SK-BR-3 [23] = experiment: as above; conditions: 100 nM; incubation time: 72 h
Method in brief: as §3

HDQ-P1 [24] = experiment: drug sensitivity score (DSS), CellTiter-Glo (DSS (AUC-based score)); higher = stronger drug effect (viability inhibition or cytotoxicity); extreme values may be limits of the assay; conditions: incubation time: 72 h
Method in brief: (§4)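 The area under the fitted dose-response curve was used to calculate the drug sensitivity score. Cells from breast cancer lines were incubated for 72 h in 384-well plates with compound at 5 concentrations spaced 10-fold over a 10,000-fold range specific to each compound. Plates were read for CellTox Green and then CellTiter-Glo, and normalised to 0.1 % DMSO and a positive kill control.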

Hs578T [25] = experiment: as above; conditions: incubation time: 72 h
Method in brief: as §4

MDA-MB-468 [26] = experiment: as above; conditions: incubation time: 72 h
Method in brief: as §4

SMILES: Cn1cncc1[C@@](N)(c1ccc(Cl)cc1)c1ccc2c(c1)c(-c1cccc(Cl)c1)cc(=O)n2C [Tipifarnib]
- EC50, CellTiter-Glo (BT-474 [1]): 6.9 µM
- EC50, CellTiter-Glo (BT-549 [2]): 5.42 µM
- EC50, CellTiter-Glo (CAL-120 [3]): 1370 nM
- EC50, CellTiter-Glo (CAL-51 [4]): 82.5 nM
- EC50, CellTiter-Glo (CAL-85-1 [5]): 9.99 µM
- EC50, CellTiter-Glo (HCC1937): 126 nM
- EC50, CellTiter-Glo (Hs578T [6]): 7.87 µM
- EC50, CellTiter-Glo (MCF-10A): 237 nM
- EC50, CellTiter-Glo (MDA-MB-436): 607 nM
- EC50, CellTiter-Glo (MDA-MB-453 [7]): 9.61 nM
- EC50, CellTiter-Glo (MDA-MB-468 [8]): 3.33 µM
- EC50, CellTiter-Glo (SK-BR-3 [9]): 414 nM
- EC50, CellTiter-Blue viability (MDA-MB-453 [10]): 1430 nM
- normalised viability (CAL-148): 42.6%
- normalised viability (CAL-51 [11]): 63.4%
- normalised viability (CAL-85-1 [12]): 65.2%
- normalised viability (DU-4475 [13]): 42%
- normalised viability (HDQ-P1 [14]): 66.8%
- normalised viability (MDA-MB-453 [15]): 50.1%
- normalised viability (BT-474 [16]): 102%
- normalised viability (BT-549 [17]): 95.3%
- normalised viability (CAL-120 [18]): 57%
- normalised viability (CAL-85-1 [19]): 85.3%
- normalised viability (DU-4475 [20]): 92.8%
- normalised viability (HCC1143): 61.6%
- normalised viability (Hs578T [21]): 70.1%
- normalised viability (MDA-MB-231): 71.8%
- normalised viability (MDA-MB-468 [22]): 96.7%
- normalised viability (SK-BR-3 [23]): 57.8%
- drug sensitivity score (HDQ-P1 [24]): 7.3
- drug sensitivity score (Hs578T [25]): 4.5
- drug sensitivity score (MDA-MB-468 [26]): 7.6
